Results published in the NIST ThermoML archive (doi:10.1016/j.jct.2018.10.026).
Numbers after ± are expanded uncertainties.

Details: 101.33 kPa, Liquid; for mass density: Vibrating tube method; for viscosity: Concentric cylinders viscometry

SMILES | mass density (293.15 K) | mass density (298.15 K) | viscosity (303.15 K) | mass density (303.15 K) | viscosity (308.15 K) | mass density (308.15 K) | viscosity (313.15 K) | mass density (313.15 K) | viscosity (318.15 K) | mass density (318.15 K) | viscosity (323.15 K) | mass density (323.15 K) | viscosity (293.15 K) | viscosity (298.15 K)
C[N+](C)(C)CCO.[O-]c1cccc2cccnc12 [choline 8-quinolinolate] | 1162.71 ± 6.5 kg/m3 | 1159.75 ± 6.5 kg/m3 | 4870960 ± 1.2e+06 mPa·s | 1156.73 ± 6.4 kg/m3 | 2363490 ± 570000 mPa·s | 1153.91 ± 6.4 kg/m3 | 1331720 ± 310000 mPa·s | 1150.97 ± 6.4 kg/m3 | 755840 ± 180000 mPa·s | 1147.91 ± 6.4 kg/m3 | 338330 ± 77000 mPa·s | 1144.78 ± 6.4 kg/m3 |  | 
C[C@H](O)C(=O)[O-].C[N+](C)(C)CCO | 1137.33 ± 11 kg/m3 | 1133.94 ± 11 kg/m3 | 2903 ± 600 mPa·s | 1130.52 ± 11 kg/m3 | 2207 ± 460 mPa·s | 1127.05 ± 11 kg/m3 | 1728 ± 360 mPa·s | 1123.55 ± 11 kg/m3 | 1368 ± 280 mPa·s | 1120.11 ± 11 kg/m3 | 1110 ± 230 mPa·s | 1116.7 ± 11 kg/m3 | 5513 ± 1200 mPa·s | 3929 ± 820 mPa·s
